{"source": "paper PMC12992715", "about": "“Dual interference with host neuropeptide signaling allows parasitoid wasp to hijack host sugar metabolism” (The EMBO Journal, 2025)", "key": {"PxHK mRNA in the midgut": {"system": "PxHK mRNA in the midgut", "assay": "Ex vivo midgut incubation with sNPF and signalling inhibitors, PxHK mRNA", "type": "cell-based, Plutella xylostella", "details": "midgut ex vivo, 20 µM sNPF + 10 µM U73122 (PLCβ inhibitor), 25 °C, 1 h; n = 5; words", "experimental": "(§1) The in vitro incubations of fat body or midgut were performed as previously described with minor modifications (Cheng et al, [2022]). The fat bodies and midguts from non-parasitised middle 4th instar P. xylostella larvae were collected in 0.5 mL of PBS. The collected tissues were then preincubated in culture dishes containing TNM-FH medium (HyClone) for 30 min. sNPF peptides or inhibitors were administered to isolated fat body and midgut in vitro using a modified method from a previous study (Oh et al, [2019]). 1 mM stock solution of pertussis toxin (PTX, Tocris Bioscience) or U73122 (MedChemExpress) was dissolved in DMSO (Sigma-Aldrich) and kept at −80 °C. 0.1 ng/µl PTX or 10 µM U73122 were then mixed with 20 µM sNPF-contained TNM-FH medium. Preincubated tissues were incubated in these mixtures at 25 °C for 1 h, followed by total RNA isolation and qPCR."}, "P. xylostella larvae [1]": {"system": "P. xylostella larvae", "assay": "Circulating haemolymph trehalose after injection of synthetic sNPF peptides, venom, CvBV or teratocyte content", "type": "in vivo, Plutella xylostella", "details": "for effect on haemolymph trehalose level: synthetic PxsNPFs, injected into 3M larvae, measured at 4M, high dosage 0.5 ng per larva, n = 4-6, words", "experimental": "(§2) Microinjections were performed under a Stemi 2000C microscope (Zeiss) using glass capillary injection needles and an Eppendorf Femtojet (Eppendorf) with a microcontroller (Narishige). To confirm the function of bovine insulin on hosts, 1 μg bovine insulin (Sigma-Aldrich, I0305000) was injected into the middle 3rd instar P. xylostella larvae. To identify the effect of each parasitic factor on hosts, 0.05 FE CvBV or 0.05 VRE venom was injected into the abdomen of the middle 3rd instar P. xylostella larva (Wang et al, [2018]; Yu et al, [2007]). 1 TE teratocytes’ content was microinjected into the early 4th instar P. xylostella larvae. To confirm the function of each synthetic sNPF peptide, 0.005 ng, 0.05 ng, or 0.5 ng of each peptide was injected into the middle 3rd instar P. xylostella larvae in a volume of 0.1 μl/per larva once per day for 3 consecutive days.\nFor P. xylostella larvae, 1 μl of haemolymph from the moth was diluted 60-fold in cold PBS and subjected to trehalose determination. The fat body of P. xylostella larvae was homogenised in 200 μl of cold PBS. Half of the homogenate was centrifuged at 13,000 rpm for 15 min, and the supernatant was used for protein content determination by Bradford Reagent (Invitrogen). The rest was heated at 70 °C for 5 min followed by centrifuging at 13,000 rpm for 15 min, and the supernatant was used for glycogen determination.\nTrehalose content determination was performed by the anthrone sulfate method. 15 μL of the sample was incubated with 15 μL of 1% H2SO4 at 90 °C for 10 min, then 15 μL of 30% KOH was added and incubated at 90 °C for 10 min. Finally, 300 μl of 0.2% anthrone (Sigma-Aldrich) solution in 96% H2SO4 was added and incubated at 90 °C for 10 min. All reactions were stopped by immersion in ice. To create a trehalose standard curve, 15 μl of trehalose standards (Sigma-Aldrich) were treated similarly as a sample. Finally, 100 μl of each sample was added to a 96-well plate. The absorbance of samples was then measured at 630 nm on a SpectraMax® iD5 Multi-Mode Microplate Reader (Molecular Devices), and the trehalose levels were calculated based on the standard curve and normalised by protein content or sample volume."}, "[2]": {"system": "PxGP, PxHK and PxTPS mRNA", "assay": "qPCR of PxGP, PxHK, PxTPS in larvae injected with synthetic sNPF, venom, CvBV or teratocytes", "type": "in vivo, Plutella xylostella", "description": "(§3) To analyse gene expression in different tissues, P. xylostella larvae were dissected under the microscope, followed by the collection of the silk gland, fat body, midgut, haemocytes and central nervous system (CNS, brain and ventral nerve cord). Haemocytes were collected on clean Parafilm membranes with capillaries by bleeding the larvae from a cut proleg. To explore gene expression at different instars of parasitised or non-parasitised larvae, non-parasitised larva was isolated individually using RNA-easy Isolation Reagent (Vazyme). Parasitoid larvae were removed before parasitised hosts were isolated. As for the measurement of other experiments, per larva with different treatments was isolated individually using RNA-easy Isolation Reagent according to the manufacturer’s instructions.\n(§4) The quality and concentrations of total RNAs were estimated by electrophoresis and NanoDrop 2000 spectrophotometer (Thermo Fisher Scientific). First-strand cDNAs were synthesised using the ReverTra Ace qPCR RT kit (Toyobo) according to the manufacturer’s instructions. Both β-actin (GenBank Acc. No.: AB282645) and β-tubulin (GenBank Acc. No.: EU127912) of P. xylostella were used as internal controls. Primer sequences used for qPCR analysis are shown in Appendix Table S4. qPCR was performed by using THUNDERBIRD® SYBR qPCR Mix (Toyobo) on the CFX Connect real-time system (Bio-Rad). All qPCR assays were performed using four internal replicates and at least three biological replicates under the following conditions: 95 °C for 60 s and 40 cycles of 95 °C for 15 s and 60 °C for 30 s. Relative gene expression levels were calculated using the 2^−ΔΔCt method.\nas §2"}, "PxsNPF mRNA": {"system": "PxsNPF mRNA", "assay": "PxsNPF mRNA after injection of venom, CvBV or teratocytes", "type": "in vivo, Plutella xylostella", "description": "as §3\nThe quality and concentrations of total RNAs were estimated by electrophoresis and NanoDrop 2000 spectrophotometer (Thermo Fisher Scientific). First-strand cDNAs were synthesised using the ReverTra Ace qPCR RT kit (Toyobo) according to the manufacturer’s instructions. Both β-actin (GenBank Acc. No.: AB282645) and β-tubulin (GenBank Acc. No.: EU127912) of P. xylostella were used as internal controls. […] Relative gene expression levels were calculated using the 2^−ΔΔCt method. […]"}, "P. xylostella larvae [3]": {"system": "P. xylostella larvae", "assay": "Haemolymph trehalose after bovine insulin", "type": "in vivo, Plutella xylostella", "details": "1 μg bovine insulin, words", "experimental": "as §2\nFor P. xylostella larvae, 1 μl of haemolymph from the moth was diluted 60-fold in cold PBS and subjected to trehalose determination. The fat body of P. xylostella larvae was homogenised in 200 μl of cold PBS. […]\nTrehalose content determination was performed by the anthrone sulfate method. […] The absorbance of samples was then measured at 630 nm on a SpectraMax® iD5 Multi-Mode Microplate Reader (Molecular Devices), and the trehalose levels were calculated based on the standard curve and normalised by protein content or sample volume."}, "[4]": {"system": "PxInR, PxGP, PxHK and PxTPS mRNA", "assay": "qPCR of PxInR, PxGP, PxHK, PxTPS after bovine insulin", "type": "in vivo, Plutella xylostella", "details": "for PxInR relative expression, average: Figure 3D; for PxInR relative expression, average / PxGP relative expression, average: normalised to Pxβ-actin and Pxβ-tubulin; for PxGP relative expression, average / PxGP relative expression: Figure 3E", "description": "as §3, §4, §2"}, "[5]": {"system": "Spodoptera exigua and Antheraea pernyi", "details": "bovine insulin injection, words, ref PMID: 25703302, 34564224; cited from earlier work", "description": "page 9: short summary of the existing data, including for instance, which species this experiment has been conducted in and the data linking bovine insulin to activation of insect insulin-like pathways. […] Response: Thank you for pointing out the need to better justify the use of bovine insulin in our experimental design."}, "[6]": {"system": "PxGP mRNA in the fat body", "assay": "Ex vivo fat body incubation with sNPF and signalling inhibitors, PxGP mRNA", "type": "cell-based, Plutella xylostella", "details": "20 µM sNPF + PTX (0.4 µM in legend, 0.1 ng/µl in method), 25 °C, 1 h, n = 6, words", "experimental": "as §1"}, "[7]": {"molecular_target": "Plutella xylostella sNPF receptor (PxsNPFR) (Plutella xylostella)"}}, "note": "No end group written: not given here.", "data": [{"molecule": "COc1ccc2c(c1)CC[C@@H]1[C@@H]2CC[C@]2(C)[C@@H](NCCCCCCN3C(=O)C=CC3=O)CC[C@@H]12", "note": "[U73122, reference compound]", "values": [{"measurement": "effect on sPxsNPF-1-stimulated PxHK mRNA", "setting": "PxHK mRNA in the midgut", "value": "abolished the facilitatory effect of sPxsNPF-1 on PxHK"}]}, {"molecule": "Cotesia vestalis bracovirus [CvBV]", "values": [{"measurement": "increase of circulating trehalose", "setting": "P. xylostella larvae [1]; 0.05 FE CvBV injected into 3M larvae, at 3L, n = 3-4", "value": 40, "unit": "%"}, {"measurement": "PxGP relative expression, average", "setting": "[2]; Figure 4B, CvBV injection, qPCR, Pxβ-actin and Pxβ-tubulin reference, relative to PBS (normalizer 6.00), mean of 5 replicates, SD 0.29", "value": 0.87}, {"measurement": "PxGP relative expression, average", "setting": "[2]; Figure 4B, PxGP vs PBS, Pxβ-actin/Pxβ-tubulin reference, mean of 5 replicates", "value": 1.73}, {"measurement": "PxHK relative expression, Average", "setting": "[2]; Figure 4B, PxHK vs PBS, Pxβ-actin/Pxβ-tubulin reference, mean of 5 replicates", "value": 2.64}, {"measurement": "PxHK relative expression", "setting": "[2]; Figure 4B, PxHK vs PBS, Pxβ-actin/Pxβ-tubulin reference, replicate 1", "value": 2.97}, {"measurement": "PxHK relative expression", "setting": "[2]; Figure 4B, PxHK vs PBS, Pxβ-actin/Pxβ-tubulin reference, replicate 2", "value": 2.49}, {"measurement": "PxHK relative expression", "setting": "[2]; Figure 4B, PxHK vs PBS, Pxβ-actin/Pxβ-tubulin reference, replicate 3", "value": 2.41}, {"measurement": "PxHK relative expression", "setting": "[2]; Figure 4B, PxHK vs PBS, Pxβ-actin/Pxβ-tubulin reference, replicate 4", "value": 2.30}, {"measurement": "PxHK relative expression", "setting": "[2]; Figure 4B, PxHK vs PBS, Pxβ-actin/Pxβ-tubulin reference, replicate 5", "value": 3.01}, {"measurement": "transcript level of PxHK", "setting": "[2]; non-parasitised larvae (whole body), CvBV, 3L, n = 5, words", "value": "increases the transcript level of PxHK"}, {"measurement": "PxsNPF expression", "setting": "PxsNPF mRNA; 24 h after injection, n = 3-6, words", "value": "an increase in PxsNPF expression 24 h after CvBV injection"}, {"measurement": "PxsNPF relative expression, Average", "setting": "PxsNPF mRNA; Figure 5K, 3M, average of replicates, vs PBS", "value": 1.99}]}, {"molecule": "DTRQPVRLRF-NH2 [sPxsNPF-2, synthetic short neuropeptide F-2 of Plutella xylostella]", "values": [{"measurement": "effect on haemolymph trehalose level", "setting": "P. xylostella larvae [1]", "value": "did not have this effect"}]}, {"molecule": "SVRAPSMRLRF-NH2 [sPxsNPF-3, synthetic short neuropeptide F-3 of Plutella xylostella]", "values": [{"measurement": "effect on haemolymph trehalose level", "setting": "P. xylostella larvae [1]", "value": "did not have this effect"}]}, {"molecule": "bovine insulin", "values": [{"measurement": "blood trehalose level", "setting": "P. xylostella larvae [3]; normal (non-parasitised) larvae", "value": "reduces the blood trehalose level"}, {"measurement": "haemolymph trehalose level", "setting": "P. xylostella larvae [3]; parasitised host, 4M, n = 4-5", "value": "not reduced by bovine insulin in the parasitised host as in the non-parasitised group"}, {"measurement": "PxGP expression", "setting": "[4]; 1 μg bovine insulin, parasitised host, 4M, n = 4-5, words", "value": "not reduced by bovine insulin in the parasitised host as in the non-parasitised group"}, {"measurement": "PxInR expression", "setting": "[4]; 1 μg bovine insulin, whole body, 4M, n = 4-5, non-parasitised and parasitised, words", "value": "upregulated in both non-parasitised and parasitised hosts"}, {"measurement": "PxInR relative expression, average", "setting": "[4]; NP, mean of 5 replicates", "value": 3.425}, {"measurement": "PxInR relative expression, average", "setting": "[4]; P, mean of 4 replicates", "value": 7.591}, {"measurement": "PxGP relative expression, average", "setting": "[4]; NP, mean of 5 replicates", "value": 0.3318}, {"measurement": "PxGP relative expression", "setting": "[4]; NP, replicate 1", "value": 0.3933}, {"measurement": "PxGP relative expression", "setting": "[4]; NP, replicate 2", "value": 0.2777}, {"measurement": "PxGP relative expression", "setting": "[4]; NP, replicate 3", "value": 0.2734}, {"measurement": "PxGP relative expression", "setting": "[4]; NP, replicate 4", "value": 0.4168}, {"measurement": "PxGP relative expression", "setting": "[4]; NP, replicate 5", "value": 0.298}, {"measurement": "PxGP relative expression, average", "setting": "[4]; P, mean of 4 replicates", "value": 3.4733}, {"measurement": "PxGP relative expression", "setting": "[4]; P, replicate 1", "value": 3.51}, {"measurement": "PxGP relative expression", "setting": "[4]; P, replicate 2", "value": 4.4126}, {"measurement": "PxGP relative expression", "setting": "[4]; P, replicate 3", "value": 3.361}, {"measurement": "PxGP relative expression", "setting": "[4]; P, replicate 4", "value": 2.609}, {"measurement": "hemolymph trehalose levels", "setting": "[5]", "value": "significant reduction in hemolymph trehalose levels"}]}, {"molecule": "pertussis toxin [PTX]", "values": [{"measurement": "effect on sCvsNPF-stimulated PxGP mRNA", "setting": "[6]", "value": "decreased the sCvsNPF activation of PxGP"}]}, {"molecule": "SQRSPSLRLRF-NH2", "note": "[synthetic CvsNPF (Cotesia vestalis short neuropeptide F)]", "values": [{"measurement": "inhibition of forskolin-stimulated cAMP accumulation in PxsNPFR-expressing HEK293 cells (10 μM forskolin, various peptide concentrations, 15 min; cAMP-Glo), EC50", "setting": "[7]", "value": 402, "unit": "nM"}]}]}
